Test results: PubChem BioAssay AID1963841 (Molecular Pharmacology Branch, DTP, NCI, 2024)

Tested on: 439559-082-T-J2-PDC spheroid viability
Assay: Anticancer human tumor 439559-082-T-J2-PDC patient-derived colon adenocarcinoma cell line growth inhibition [POLQ]
Settings: spheroids with HUVEC and MSC; for IC50: curve of first compound; for viability, T/C: stronger effect = lower value
Procedure, shortened: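 PDC + HUVEC + MSC complex spheroids; POLQ inhibitors ± partner drugs; top conc. at/near clinical Cmax, else 10 microM (SN-38 1 microM), half-log dilutions; 37 degrees C, 5% CO2.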

[1] = second compound 0.0316 µM, first compound 0.0316 µM
[2] = second compound 0.0316 µM, first compound 0.1 µM
[3] = second compound 0.0316 µM, first compound 0.316 µM
[4] = second compound 0.0316 µM, first compound 1 µM
[5] = second compound 0.0316 µM, first compound 3.16 µM
[6] = second compound 0.0316 µM, first compound 10 µM
[7] = second compound 0.1 µM, first compound 0.0316 µM
[8] = second compound 0.1 µM, first compound 0.1 µM
[9] = second compound 0.1 µM, first compound 0.316 µM
[10] = second compound 0.1 µM, first compound 1 µM
[11] = second compound 0.1 µM, first compound 3.16 µM
[12] = second compound 0.1 µM, first compound 10 µM
[13] = second compound 0.316 µM, first compound 0.0316 µM
[14] = second compound 0.316 µM, first compound 0.1 µM
[15] = second compound 0.316 µM, first compound 0.316 µM
[16] = second compound 0.316 µM, first compound 1 µM
[17] = second compound 0.316 µM, first compound 3.16 µM
[18] = second compound 0.316 µM, first compound 10 µM
[19] = second compound 1 µM, first compound 0.0316 µM
[20] = second compound 1 µM, first compound 0.1 µM
[21] = second compound 1 µM, first compound 0.316 µM
[22] = second compound 1 µM, first compound 1 µM
[23] = second compound 1 µM, first compound 3.16 µM
[24] = second compound 1 µM, first compound 10 µM
[25] = second compound 3.16 µM, first compound 0.0316 µM
[26] = second compound 3.16 µM, first compound 0.1 µM
[27] = second compound 3.16 µM, first compound 0.316 µM
[28] = second compound 3.16 µM, first compound 1 µM
[29] = second compound 3.16 µM, first compound 3.16 µM
[30] = second compound 3.16 µM, first compound 10 µM
[31] = second compound 10 µM, first compound 0.0316 µM
[32] = second compound 10 µM, first compound 0.1 µM
[33] = second compound 10 µM, first compound 0.316 µM
[34] = second compound 10 µM, first compound 1 µM
[35] = second compound 10 µM, first compound 3.16 µM
[36] = second compound 10 µM, first compound 10 µM
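Further: spheroids exposed to compounds for seven days before readout.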
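Wherever viability, T/C is given: 100% = DMSO vehicle control viability.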

With `CNCc1ccc(-c2[nH]c3cc(F)cc4c3c2CCNC4=O)cc1` + Cc1cccc(N(C)C(=O)C2C(O)CCN2c2nc(C)cc(C(F)(F)F)c2C#N)c1 the IC50 (second compound 0.0316 µM) was greater than 10 µM, the IC50 (second compound 0.1 µM) was greater than 10 µM and the IC50 (second compound 0.316 µM) was greater than 10 µM. It also gave an IC50 (second compound 1 µM) greater than 10 µM, an IC50 (second compound 3.16 µM) greater than 10 µM and an IC50 (second compound 10 µM) greater than 10 µM. For the same compound, the viability, T/C [1] was 94.8%, the viability, T/C [2] was 108% and the viability, T/C [3] was 99.3%. For the same compound, the viability, T/C [4] was 96.5%, the viability, T/C [5] was 102% and the viability, T/C [6] was 110%. It also gave a viability, T/C [7] of 103%, a viability, T/C [8] of 105% and a viability, T/C [9] of 108%. It also gave a viability, T/C [10] of 95.8%, a viability, T/C [11] of 101% and a viability, T/C [12] of 96.8%. For the same compound, the viability, T/C [13] was 105%, the viability, T/C [14] was 105% and the viability, T/C [15] was 98.3%. For the same compound, the viability, T/C [16] was 114%, the viability, T/C [17] was 102% and the viability, T/C [18] was 102%. The viability, T/C [19] was 99.3%, the viability, T/C [20] was 92.6% and the viability, T/C [21] was 92.2%. It also gave a viability, T/C [22] of 106%, a viability, T/C [23] of 95.7% and a viability, T/C [24] of 106%. It also gave a viability, T/C [25] of 105%, a viability, T/C [26] of 98.3% and a viability, T/C [27] of 96.9%. It also gave a viability, T/C [28] of 99.1%, a viability, T/C [29] of 102% and a viability, T/C [30] of 99.5%. For the same compound, the viability, T/C [31] was 88.4%, the viability, T/C [32] was 92.8% and the viability, T/C [33] was 93.5%. The viability, T/C [34] was 91.1%, the viability, T/C [35] was 97.2% and the viability, T/C [36] was 100%.

With `Nc1ccn(C2OC(CO)C(O)C2(F)F)c(=O)n1` (stereo unspecified) + Cc1cccc(N(C)C(=O)C2C(O)CCN2c2nc(C)cc(C(F)(F)F)c2C#N)c1 the IC50 (second compound 0.0316 µM) was 0.923 µM, the IC50 (second compound 0.1 µM) was 0.952 µM and the IC50 (second compound 0.316 µM) was 0.829 µM. It also gave an IC50 (second compound 1 µM) of 0.676 µM, an IC50 (second compound 3.16 µM) of 0.802 µM and an IC50 (second compound 10 µM) of 0.829 µM. For the same compound, the viability, T/C [1] was 77.8%, the viability, T/C [2] was 71.7% and the viability, T/C [3] was 60.6%. The viability, T/C [4] was 49.9%, the viability, T/C [5] was 37.5% and the viability, T/C [6] was 30.6%. The viability, T/C [7] was 85.4%, the viability, T/C [8] was 76.9% and the viability, T/C [9] was 63.8%. For the same compound, the viability, T/C [10] was 48.5%, the viability, T/C [11] was 39.8% and the viability, T/C [12] was 32.1%. It also gave a viability, T/C [13] of 82.5%, a viability, T/C [14] of 75.8% and a viability, T/C [15] of 63.3%. For the same compound, the viability, T/C [16] was 47.5%, the viability, T/C [17] was 35.4% and the viability, T/C [18] was 29.6%. The viability, T/C [19] was 83.2%, the viability, T/C [20] was 76.1% and the viability, T/C [21] was 61.3%. The viability, T/C [22] was 43.1%, the viability, T/C [23] was 37.7% and the viability, T/C [24] was 30.9%. For the same compound, the viability, T/C [25] was 79.8%, the viability, T/C [26] was 69.3% and the viability, T/C [27] was 59.4%. The viability, T/C [28] was 47.1%, the viability, T/C [29] was 38.3% and the viability, T/C [30] was 31.4%. For the same compound, the viability, T/C [31] was 80.3%, the viability, T/C [32] was 70.6% and the viability, T/C [33] was 57.1%. It also gave a viability, T/C [34] of 49.5%, a viability, T/C [35] of 40% and a viability, T/C [36] of 35%.

Compound `O=C(c1cc(Cc2n[nH]c(=O)c3ccccc23)ccc1F)N1CCN(C(=O)C2CC2)CC1` + Cc1cccc(N(C)C(=O)C2C(O)CCN2c2nc(C)cc(C(F)(F)F)c2C#N)c1 has an IC50 (second compound 0.0316 µM) greater than 10 µM, an IC50 (second compound 0.1 µM) greater than 10 µM and an IC50 (second compound 0.316 µM) greater than 10 µM. The IC50 (second compound 1 µM) was greater than 10 µM, the IC50 (second compound 3.16 µM) was greater than 10 µM and the IC50 (second compound 10 µM) was greater than 10 µM. For the same compound, the viability, T/C [1] was 95.8%, the viability, T/C [2] was 103% and the viability, T/C [3] was 107%. The viability, T/C [4] was 107%, the viability, T/C [5] was 95% and the viability, T/C [6] was 92.1%. For the same compound, the viability, T/C [7] was 103%, the viability, T/C [8] was 98.7% and the viability, T/C [9] was 101%. The viability, T/C [10] was 109%, the viability, T/C [11] was 94.4% and the viability, T/C [12] was 101%. The viability, T/C [13] was 103%, the viability, T/C [14] was 100% and the viability, T/C [15] was 98.4%. The viability, T/C [16] was 108%, the viability, T/C [17] was 102% and the viability, T/C [18] was 97.1%. For the same compound, the viability, T/C [19] was 103%, the viability, T/C [20] was 106% and the viability, T/C [21] was 102%. For the same compound, the viability, T/C [22] was 103%, the viability, T/C [23] was 98.8% and the viability, T/C [24] was 98.8%. The viability, T/C [25] was 94%, the viability, T/C [26] was 106% and the viability, T/C [27] was 98.4%. For the same compound, the viability, T/C [28] was 98.3%, the viability, T/C [29] was 103% and the viability, T/C [30] was 95.2%. For the same compound, the viability, T/C [31] was 97.9%, the viability, T/C [32] was 91.4% and the viability, T/C [33] was 95.3%. The viability, T/C [34] was 98.3%, the viability, T/C [35] was 97.5% and the viability, T/C [36] was 83.6%.
